The results in this text go back to US7575857B2, “Screening method for identifying protective substances for treating neurodegenerative and/or ischemic disorders” (SYGNIS Bioscience GmbH & Co. KG, priority 2002, dated 2009).

Where “and” joins values, the source holds several entries; their conditions need not be identical. Identical values can stand only once.

One test concerns alpha globin. The experiment in a line: alpha globin induction in the animals of the neuroglobin experiment. The format is in vivo. Particulars: same animals as neuroglobin test, 5000 units/kg i.p. From the text:
(§1) However, it has important biochemical characteristics which fundamentally distinguish it from the globins, e.g. a far higher oxygen affinity (Dewilde et al. (2001), Journal of Biological Chemistry, 276, 38949-55). Neuroglobin is neuroprotective, although the mechanism here is not known (Sun et al. (2001), Proc. Natl. Acad. Sci. USA, 98, 15306-11, Venis (2001), Lancet, 358, 2055, Sun et al. (2003), Proc. Natl. Acad. Sci. USA, 5, 5). To determine whether neuroglobin possibly also plays a role in erythropoetin-conveyed neuroprotection, the relative content of neuroglobin mRNA after EPO administration was determined using relative quantitative PCR in comparison with cyclophilin. 5000 units of EPO/kg body weight were applied i.p. and the animals were killed after transcardial perfusion. RNA and cDNA were obtained using standard methods. From serial dilutions of the cDNA (3 times serial dilutions), the levels of cyclophilin and neuroglobin were determined and the ratio of neuroglobin/cyclophilin in the sham-treated animals set at 1. The standard deviations in the following values relate to measurements at different dilutions (n=4) and represent the measurement accuracy. The primers used were: ng1_m_LC—1s: […] (SEQ ID NO: 14), ng1_m_LC—1as: […] (SEQ ID NO: 15) for neuroglobin. […]

The test system of test [1] is δ-aminolaevulinic acid synthase (ALAS) mRNA. Briefly: Quantitative PCR for ALAS mRNA in brain of EPO-injected animals. The format is in vivo. From the text:
The primer sequences used and PCR conditions were, for ALAS:
(annealing temperature: 60 C.; measurement temperature: 83 C.; 45 cycles), and for DALDH: Daldh_m—1 s: […] (SEQ ID NO:12), daldh_m—1 as: […] (SEQ ID NO: 13) (annealing temperature: 60 C.; measurement temperature: 85 C.; 45 cycles).
Through the daily administration of this dosage of EPO for 7 days, induction factors of up to 130 times were achieved: sham: 1±0.64; EPO-injected animal 1 (Epo—1)=11.67±5.46; EPO-injected animal 2 (Epo—2)=118.93±31.02; EPO-injected animal 3 (Epo—3)=44.88±15.15; EPO-injected animal 4 (Epo—4)=129.47±8.77 (FIG. 18).

For the next test, the system named is neuroglobin mRNA. The experiment in a line: Quantitative PCR for neuroglobin mRNA after erythropoetin injection. The format is in vivo. Particulars: 5000 units/kg i.p., single injection.
Excerpt: as §1

The subject of the next test is beta globin. The experiment in a line: beta globin induction in the animals of the neuroglobin experiment. The format is in vivo. Conditions: same animals as neuroglobin test, 5000 units/kg i.p.
Excerpt: as §1

In a further test the test system is haemoglobin. The experiment in a line: Haemoglobin concentration in brain homogenate (rapid cyanhaemiglobin method) after one-off i.p. erythropoetin injection. The format is in vivo, mice. Conditions: 5000 units/kg i.p., 24 hours after injection, perfused brain, n=3. Here is the method: In continuation of Example 3, the haemoglobin concentration was also determined in the brain of mice to whom intraperitoneal erythropoetin (Erypo made by the company Janssen) had been administered (5000 units/kg body weight). After injection of EPO, the mice were terminally anaesthetised after 24 hours by injection with Rompun/Ketanest, and the blood was rinsed out of the vascular system of the brain by transcardial perfusion with 40 ml Hanks balanced salt solution (HBSS). […] The protein content of the samples was determined according to the Bradford method (Bradford, 1976, Anal. Biochem. 72, 248-254). The haemoglobin concentration was measured with the rapid cyanhaemiglobin method (van Kampen and Zijlstra, 1961, Clin. Chim. Acta 6, 538-544). […] The extinction at 546 nm was then measured and multiplied by 36.7 to obtain the concentration in g/dl. These values were then related to the protein concentration/volume brain tissue, giving the following values (including the measured transgenic animals from Example 3): control animals: 32.54±17.51 μg/mg brain protein (n=10); EPO-transgenic animals (line tg6): 79.00±32.12 (n=13); EPO-injected animals (24 hours after injection): 77.14±13.51 μg/mg brain protein (n=3). […]

The mark [2] stands for this setting: 5000 units/kg i.p. daily for 7 days.

For the substance Erythropoietin [EPO], the alpha globin induction result in the test on alpha globin was “approx. 14 times”. In addition, in test [1] (setting [2]), the ALAS induction factors entry is listed as “up to 130 times”; the “ALAS mRNA level (sham = 1), individual animals” value was 11.67±5.46 and 118.93±31.02 and 44.88±15.15 and 129.47±8.77. In addition, in test [1] (one-off dose 5000 units/kg i.p., 24 h), the “ALAS mRNA level (sham = 1), individual animals” value was 10.07±0.00 and 8.76±0.18 and 14.69±0.27. Further, in test [1] (same animals as neuroglobin test, 5000 units/kg i.p.), the ALAS induction result is listed as “approx. 10 times”. Further, the “ratio neuroglobin/cyclophilin mRNA (sham-treated set at 1), individual animals” value in the test on neuroglobin mRNA was “no induction and 1.01±0.15 and 0.99±0.15 and 1.04±0.13”. Moreover, the beta globin induction entry in the test on beta globin was “approx. 10 times”. Moreover, the “haemoglobin concentration related to brain protein” value in the test on haemoglobin worked out at 77.14±13.51 μg/mg brain protein.
